The assay concerns adenosine-uptake system. Nature of the assay: Inhibition of the adenosine uptake in rabbit erythrocytes. It counts as cell-based. The settings on record: Oryctolagus cuniculus, 0.25 h; rabbit erythrocyte preparation; concentration at which 50% of the adenosine originally employed is still present 15 min after addition of adenosine; 30° C.; read-out: IC50 (inhibition of functional adenosine uptake). As to the method:
2. Inhibition of the Adenosine Uptake in Rabbit Erythrocytes by the Compounds According to the Invention
The capability of substances to influence the adenosine-uptake system is investigated by determining the inhibitory effect of the substances on functional adenosine uptake.
For the functional adenosine-uptake test, an erythrocyte preparation from rabbit blood is used. The blood is drawn intravenously using citrate (3 ml Monovette 9NC from Sarstedt) as anticoagulant. The blood is centrifuged at 3000 g for 5 min and the erythrocytes are suspended in 10 mM 3-(N-morpholino)propanesulphonic acid buffer (MOPS)/0.9% NaCL solution pH7.4. The suspension is diluted to one hundredth of the original blood volume. In each case, 990 μl of the suspension are admixed with 10 μl of a suitable concentration of the substance to be investigated, and the mixture is incubated at 30° C. for 5 min. 5 μl of a 4 mM adenosine solution are then added, and the mixture is incubated at 30° C. for another 15 min. The samples are then centrifuged at 3000 g for 5 min and in each case 700 μl of the supernatant are admixed with 28 μl of 70% strength HClO4, allowed to stand in an ice bath for 30 min and centrifuged at 16,000 g for 3 min, and 350 μl of the sample are neutralized using 30 μl of 5N NaOH. 50 μl of the sample are applied to a column (Waters Symmetry C18 5 μm 3.9×150 mm). A Spherisorb ODS II 5 μm 4.6×10 mm column is used as precolumn. The mobile phase used is a gradient of […] KH2PO4/5 mM tributylamine pH7 (mobile phase A) and a mixture of mobile phase A/methanol 1/1 (mobile phase B). The gradient is from 10 to 40% B, at a flow rate of 0.5 ml/min. The adenosine which is present is quantified by its absorption at 260 nm, as are the hypoxanthine and inosine formed. The IC50 is the concentration of active compound at which, 15 min after addition of adenosine, 50% of the adenosine concentration originally employed is still present.

Take `NC(=O)[C@@H](NC(=O)[C@@H]1CCCC[C@H]1c1ccc(CN(C(=O)N2CCOCC2)c2ccccc2)cc1)c1ccccc1` [Example 1-1, N-{4-[(1R,2R)-2-({[(1S)-2-Amino-2-oxo-1-phenylethyl]amino}carbonyl)cyclohexyl]benzyl}-N-phenyl-4-morpholinecarboxamide]: the half-inhibitory concentration (IC50) (in general, the midpoint of a concentration-inhibition curve) is 30 nM.

For `CN(C)C(=O)N(Cc1ccc([C@@H]2CCCC[C@H]2C(=O)N[C@H](C(N)=O)c2ccccc2)cc1)c1ccccc1` [Example 1-3], the IC50 came out at 20 nM. Next, `CN(C)C(=O)N(Cc1ccc([C@@H]2CCCC[C@H]2C(=O)N[C@H](C(N)=O)c2ccccc2)cc1)C1CC1` [Example 1-14]: 30 nM.

With `CCN(CC)C(=O)N(Cc1ccc([C@@H]2CCCC[C@H]2C(=O)N[C@H](C(N)=O)c2ccccc2)cc1)c1ccccn1` [Example 1-33], the IC50 was determined as 40 nM. Next, `CCN(CCO)C(=O)N(Cc1ccc([C@@H]2CCCC[C@H]2C(=O)N[C@H](C(N)=O)c2ccc(F)cc2)cc1)c1ccc(F)cc1` [Example 2-1, (1R,2R)-N-[(1S)-2-Amino-1-(4-fluorophenyl)-2-oxoethyl]-2-(4-{[{[ethyl(2-hydroxyethyl)amino]carbonyl}(4-fluorophenyl)amino]methyl}phenyl)cyclohexanecarboxamide]: 20 nM. Next, `CCN(CCO)C(=O)N(Cc1ccc([C@@H]2CCCC[C@H]2C(=O)N[C@H](C(N)=O)c2ccccc2)cc1)c1ccccc1` [Example 2-18, (1R,2R)-N-[(1S)-2-Amino-1-phenyl-2-oxoethyl]-2-(4-{[{[ethyl(2-hydroxyethyl)-amino]carbonyl}(phenyl)amino]methyl}phenyl)cyclohexanecarboxamide]: 20 nM.

The values are drawn from patent publication US7074780B2, “Substituted phenylcyclohexanecarboxamides and their use” (Bayer Aktiengesellschaft, priority 2000, dated 2006).
